By IC50 is commonly meant the point on the concentration scale where inhibition reaches its midpoint.

Entries after “also recorded” stand apart in the source; their conditions may differ.

Data on 6 compounds can be found in article PMC10299677, “Fluorinated Benzofuran and Dihydrobenzofuran as Anti-Inflammatory and Potential Anticancer Agents” (International Journal of Molecular Sciences, 2023).

What all share (format): cell-based, C57BL/6J mice
The test system of assay [1] is NF-κB or Iκ-Bα phosphorylation. The assay can be described thus: NF-κB and IκBα phosphorylation in LPS-treated macrophages (Western blot). The note with it: compounds 30 min prior to 1 h LPS. The method, then:
(§1) Macrophages were incubated with the compounds for 30 min prior to the addition of 10 ng/mL LPS for 24 h. Protein levels for COX-2 and NOS2 were detected in LPS-stimulated macrophages. As previously described, 10 µg of total protein was assessed. The primary antibodies were developed and characterized as previously described: for COX-2, mouse monoclonal antibody anti-COX-2 (clone COX-214, 1/5000); for NOS2, rabbit polyclonal antibody anti-NOS2 (dilution1/2000 [33]). Antibodies anti-phospho-NF-κB (3033S), phospho-IκBα (9246S), and total IκBα (4814S) were from Cell Signaling Technologies (Danvers, MA, USA). Total NF-κB C-20 (sc-372) was from Santa Cruz Biotechnologies (Dallas, TX, USA), and mouse β-actin (dilution 1/10,000) (Sigma-Aldrich, A5441). Clarity™ western ECL substrate (Bio-Rad Laboratories 10-5061) was used according to the manufacturer’s instructions to reveal positive bands visualized using Bio-Rad ChemiDoc. For Bcl-2 and cleaved PARP-1, HCT116 cells were plated in 6-well plates (200,000 cells per well) for 24 h, and treated with compounds 1 and 2 at 10, 25, and 50 µM for 72 h. Supernatants and cells were collected and lysed using RIPA lysis buffer containing inhibitors of protease. Western blot of Bcl-2 and cleaved PARP-1 was performed using 25 µg of total protein with a rabbit polyclonal antibody anti-Bcl-2 (1/500) (Santa Cruz Biotechnology, sc-492), rabbit polyclonal antibody anti-PARP-1 (1/1000) (Santa Cruz Biotechnology, sc-7150), and mouse anti-β-actin (dilution 1/10,000) (Sigma-Aldrich, A5441).
F i g u re S4: Phosphorylation of NF-κB and IκBα kinetics in LPS-treated macrophages. (A) Kinetics of the phosphorylation of NF-κB and IκBα in macrophages. Cells were treated with 10 ng/mL LPS for different time points and protein expression was assessed by western blot. We determine that 1 hour incubation with LPS is efficient for the phosphorylation of NF-κB and IκBα phosphorylation; (B) Macrophages were treated with the tested compounds for 30 minutes prior to 1 hour-treatment with LPS. β-actin was used as a loading control and densitometric analysis was done ImageJ Software (NIH, MA). Data are ex pressed as fold of LPS-treated macrophages and represented as mean ± S.E.M. of 3 different experiments, *p<0.05 versus LPS (One-w a y Anova followed by the Dunnett’s test). […]
For orientation: Immunoblotting shows a protein as a band on a membrane.

Assay [2] relates to NOS2 protein expression. The assay can be described thus: NOS2 protein expression in LPS-treated macrophages (Western blot). The note with it: 50 µM, LPS 24 h. Here is the method:
Figure 4 Effects of the fluorinated benzofuran and dihydrobenzofuran on COX-2 and NOS2 protein expressions. COX-2 and NOS2 protein expressions were assessed in macrophages incubated with only 10 µM for compounds 1, 7, and 9, and 50 µM for the other compounds, for 30 min prior to the addition of 10 ng/mL LPS for 24 h. β-actin was used as a loading control, and densitometric analysis was performed using ImageJ software (NIH, MA). Data are expressed as fold of LPS-treated macrophages and represented as mean ± SEM of 4 different experiments; * p < 0.05 versus LPS (one-way ANOVA followed by Dunnett’s test).
as §1
Densitometric analyses were performed using ImageJ software (NIH, MA, USA). The ratio of the different analyzed bands to β-actin was determined and data are represented as fold change compared to the LPS-treated cells. Percentage of viable cells for proliferation assay was determined as percentage to control (non-treated cells). For TUNEL assay, apoptotic cells were quantified, and results were expressed as percentage to positive cells (cleaved DNA) compared to control (non-treated cells). Statistical analysis was performed using one-way ANOVA, followed by Dunnett’s multiple comparisons test using GraphPad Prism software. […]

The target in assay [3] is T1, COX-2 (Mus musculus, UniProt Q05769).
T1 construct: prior to the addition of LPS for 24 h to induce COX-2; endogenous in cells; host or cells: Bone marrow-derived macrophages from C57BL/6J mice, aspirin-pretreated, then LPS 24 h
T1 sequence (Q05769 18-604): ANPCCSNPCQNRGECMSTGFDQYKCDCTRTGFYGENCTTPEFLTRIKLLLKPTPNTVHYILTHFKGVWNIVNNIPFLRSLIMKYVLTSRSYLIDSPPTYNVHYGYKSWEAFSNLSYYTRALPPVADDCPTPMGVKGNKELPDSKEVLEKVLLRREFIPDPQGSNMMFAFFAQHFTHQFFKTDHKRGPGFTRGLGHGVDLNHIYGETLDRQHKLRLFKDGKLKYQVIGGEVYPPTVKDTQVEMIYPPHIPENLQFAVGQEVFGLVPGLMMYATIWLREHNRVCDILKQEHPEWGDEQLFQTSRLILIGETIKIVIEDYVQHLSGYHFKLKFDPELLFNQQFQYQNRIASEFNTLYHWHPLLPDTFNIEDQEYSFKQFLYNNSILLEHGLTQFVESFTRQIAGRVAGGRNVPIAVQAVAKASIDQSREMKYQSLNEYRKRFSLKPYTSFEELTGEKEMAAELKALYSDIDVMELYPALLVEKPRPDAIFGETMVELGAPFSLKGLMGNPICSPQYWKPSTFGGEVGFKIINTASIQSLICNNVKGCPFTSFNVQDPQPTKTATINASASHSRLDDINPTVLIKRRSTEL
Nature of the assay: COX-2 activity: PGE2 from exogenous arachidonic acid in aspirin-pretreated, 24 h LPS-treated macrophages. As to conditions: 10 µM arachidonic acid; for effect on COX-2 activity: 50 µM, aspirin-pretreated LPS-treated macrophages; for IC50: aspirin-pretreated, 24 h LPS-treated macrophages. Here is the method: (A) Illustration for COX-1 activity assay. […] (B) COX-1 activity. […] (C) Illustration for COX-2 activity determination. Macrophages are treated with 10 µM of aspirin (ASA) for 30 min to block basal COX activity, washed, and treated with 10 ng/mL LPS for 24 h to induce COX-2. Cells are then washed and incubated 30 min with 50 µM of the different compounds prior to the addition of 10 µM of AA. The produced PGE2 mainly reflects COX-2 activity. (D) COX-2 activity. Percentage of LPS-treated cells was calculated, and data are represented as mean ± SEM (n = 4); * p < 0.05 versus AA for COX-1 activity, and versus LPS + ASA + AA for COX-2 activity (one-way ANOVA followed by Dunnett’s test).
For both COX-1 and COX-2 assays, the benzofuran compounds were then added to the cells for 30 min prior to the incubation with 10 µM arachidonic acid for another 30 min. PGE2 was then measured using an enzyme immunoassay, as described previously.
IL-6, CCL2, nitrite (for NO), and PGE2 concentrations from 3–5 independent experiments were expressed as percentage of LPS alone and as mean ± SEM. COX activity was determined as percentage of PGE2 produced from exogenous arachidonic acid. Curve fitting and calculation of IC50 values were performed using GraphPad Prism (version 9.5.1 Software, La Jolla, CA, USA).

As for `COC(=O)/C=C1/Oc2ccc(Br)cc2C1(F)F` [Compound 1], in assay [1], the “effect on NF-κB or Iκ-Bα phosphorylation induced by LPS” value (from here on “effect … by LPS”) is given as “did not modify”.
`O=C(O)/C=C1/Oc2ccc(Br)cc2C1(F)F` [Compound 2]: in assay [1], the “effect … by LPS” value is listed as “did not modify”. In assay [2], the “effect on LPS-dependent NOS2 protein expression” value is given as “inhibition”.
Consider `O=C(O)/C=C1\Oc2ccc(Br)cc2C1(F)F` [Compound 3], for which the “effect … by LPS” value in assay [1] is given as “did not modify”. The “effect on LPS-dependent NOS2 protein expression” value in assay [2] was “inhibition”. Also, the “effect on COX-2 activity” value in assay [3] is on record as “slight reduction”.
With `O=C(O)Cc1oc2ccc(-c3ccccc3)cc2c1F` [Compound 5], the “effect on LPS-dependent NOS2 protein expression” value in assay [2] was “no effect”. Moreover, in assay [3], the “effect on COX-2 activity” value is reported as “strongly reduced; also recorded: direct inhibitory effect” and the IC50 worked out at 28.1 µM.
The like results for `C=C(C)c1ccc2oc(CC(=O)O)c(F)c2c1` [Compound 6] were, in that order, “no effect”, “strongly reduced; also recorded: direct inhibitory effect” and 13 µM.
Take `COC(=O)CC1(O)Oc2ccc(Br)cc2C1(F)F` (centres unmarked) [Compound 8]: the “effect … by LPS” value in assay [1] is given as “did not modify”. The “effect on COX-2 activity” value in assay [3] is recorded as “without any effect”.
